Several values for one entry are separate records, joined by “and”; a condition that tells them apart may be missing. Equal values may be shown once. Read-outs that look alike come from different tables or passages of the source.
How the values were obtained:
[1] = test system: Hsp90 Brain; test: Hsp90 competition assay, brain homogenate; type: binding, mouse; settings: for EC50: normal tissue; for Brain/SKBr3: ratio of EC50 Hsp90 values
Experimental: (§3) Hsp90 competition assay. Fluorescence polarization measurements were performed on an Analyst AD instrument (Molecular Devices, Sunnyvale, Calif.). […] The assay buffer (HFB) contained 20 mM HEPES (K) pH 7.3, 50 mM KCl, 5 mM MgCl2, 20 mM Na2MoO4, 0.01% NP40. Before each use, 0.1 mg/mL bovine gamma globulin (BGG) (Panvera Corporation, Madison, Wis.) and 2 mM DTT (Fisher Biotech, Fair Lawn, N.J.) were freshly added. […] Cell lysates were prepared rupturing cellular membranes by freezing at −70° C. and dissolving the cellular extract in HFB with added protease and phosphotase inhibitors. Organs were harvested from a healthy mouse and homogenized in HFB. Saturation curves were recorded in which GM-BODIPY (5 nM) was treated with increasing amounts of cellular lysates.

[2] = test system: renal proximal tubular epithelial cells (RPTEC); test: Growth inhibition of normal RPTEC cells; type: cell-based, human; settings: for IC50: 72 h, read-out: IC50 RPTEC
Experimental: (§1) Cell culture. The human breast cancer cell lines SKBr3 and MDA-MB-468 were a gift from Dr. Neal Rosen (MSKCC). Cells were maintained in 1:1 mixture of DME:F12 supplemented with 2 mM glutamine, 50 units/mL penicillin, 50 […] and 10% heat inactivated fetal bovine serum (Gemini Bioproducts #100-10b) and incubated at 37° C., 5% CO2. Growth assays. Growth inhibition studies were performed using the sulforhodamine B assay as previously described.^29 In summary, experimental cultures were plated in microtiter plates (Nunc #167008). One column of wells was left without cells to serve as the blank control. Cells were allowed to attach overnight. The following day, growth medium having either drug or DMSO at twice the desired initial concentration was added to the plate in triplicate and was serially diluted at a 1:1 ratio in the microtiter plate. After 72 h of growth, the cell number in treated versus control wells was estimated after treatment with 50% trichloroacetic acid and staining with 0.4% sulforhodamine B in 1% acetic acid. […] Normal human renal proximal tubular epithelial (RPTEC) cells were purchased pre-seeded in 96-well plates (Clonetics, CC-3190). Upon receipt, cells were placed in a humidified incubator at 37° C., 5% CO2 and allowed to equilibrate for 3 h. Media was removed by suction and replaced with fresh media provided by the manufacturer. Cells were then treated with either drugs or DMSO for 72 h and the IC50 values were determined as described above.

[3] = test system: Hsp90 SKBr3; test: Hsp90 competition assay, SKBr3 cell lysate; settings: read-out: EC50 Hsp90 SKBr3
Experimental: Hsp90 competition assay. Fluorescence polarization measurements were performed on an Analyst AD instrument (Molecular Devices, Sunnyvale, Calif.). […] The assay buffer (HFB) contained 20 mM HEPES (K) pH 7.3, 50 mM KCl, 5 mM MgCl2, 20 mM Na2MoO4, 0.01% NP40. Before each use, 0.1 mg/mL bovine gamma globulin (BGG) (Panvera Corporation, Madison, Wis.) and 2 mM DTT (Fisher Biotech, Fair Lawn, N.J.) were freshly added. GM-BODIPY was synthesized as previously reported^23a and was dissolved in DMSO to form 10 μM solutions. Recombinant Hsp90α was purchased from Stressgen Bioreagents (cat. No. SPP-776), (Victoria, Canada). Cell lysates were prepared rupturing cellular membranes by freezing at −70° C. and dissolving the cellular extract in HFB with added protease and phosphotase inhibitors. […] Saturation curves were recorded in which GM-BODIPY (5 nM) was treated with increasing amounts of cellular lysates.

[4] = molecular target: recombinant Hsp90α (Homo sapiens (Human), UniProt P07900); test: Hsp90 competition assay (fluorescence polarization), recombinant protein; type: binding; settings: average of 3 measurements, displacement of fluorescent GM
Experimental: Hsp90 competition assay. Fluorescence polarization measurements were performed on an Analyst AD instrument (Molecular Devices, Sunnyvale, Calif.). […] The assay buffer (HFB) contained 20 mM HEPES (K) pH 7.3, 50 mM KCl, 5 mM MgCl2, 20 mM Na2MoO4, 0.01% NP40. Before each use, 0.1 mg/mL bovine gamma globulin (BGG) (Panvera Corporation, Madison, Wis.) and 2 mM DTT (Fisher Biotech, Fair Lawn, N.J.) were freshly added. GM-BODIPY was synthesized as previously reported^23a and was dissolved in DMSO to form 10 μM solutions.

[5] = test system: Her2; test: Her2 assay (microtiter immunoassay of Her2 degradation); type: cell-based, human
Experimental: Her2 assay. SKBr3 cells were plated in black, clear-bottom microtiter plates (Corning #3603) at 3,000 cells/well in growth medium (100 μl) and allowed to attach for 24 h at 37° C. and 5% CO2. Growth medium (100 μl) with drug or vehicle (DMSO) was carefully added to the wells, and the plates were placed at 37° C. and 5% CO2. Following 24 h incubation with drugs, wells were washed with ice-cold Tris buffer saline (TBS) containing 0.1% Tween 20 (TBST) (200 μl). A house vacuum source attached to an eight-channel aspirator was used to remove the liquid from the plates. Further, methanol (100 μl at −20° C.) was added to each well, and the plate was placed at 4° C. for 10 min. Methanol was removed by washing with TBST (2×200 μl). After further incubation at RT for 2 h with SuperBlockR (Pierce 37535) (200 μl), anti-Her-2 (c-erbB-2) antibody (Zymed Laboratories #28-004) (100 μl, 1:200 in SuperBlockR) was placed in each well. The plate was incubated overnight at 4° C. For control wells, 1:200 dilution of a normal rabbit IgG (Santa Cruz #SC-2027) in SuperblockR was used. Each well was washed with TBST (2×200 μl) and incubated at RT for 2 h with an anti-rabbit HRP-linked antibody (Sigma, A-0545) (100 μl, 1:2000 in SuperBlockR). Unreacted antibody was removed by washing with TBST (3×200 μl), and the ECLTM Western blotting reagent (Amersham #RPN2106) (100 μL) was added. The plate was immediately read in an Analyst AD plate reader (Molecular Devices). Each well was scanned for 0.1 s. Readings from wells containing only control IgG and the corresponding HRP-linked secondary antibody were set as background and deducted from all measured values.

[6] = test system: MDA-MB-468 cells; test: Anti-mitotic assay (Tg-3 microtiter immunoassay); type: cell-based, human; settings: 24 h, concentration dependent increase in Tg-3 luminescence
Experimental: Anti-mitotic assay. Black, clear-bottom microtiter 96-well plates (Corning Costar #3603) were used to accommodate experimental cultures. MDA-MB-468 cells were seeded in each well at 8,000 cells per well in growth medium (100 μL), and allowed to attach overnight at 37° C. and 5% CO2. Growth medium (100 μL) with drug or vehicle (DMSO) was gently added to the wells, and the plates were incubated at 37° C. and 5% CO2 for 24 h. Wells were washed with ice-cold TBST (2×200 μL). A house vacuum source attached to an eight-channel aspirator was used to remove the liquid from the 96-well plates. Ice-cold methanol (100 μL) was added to each well, and the plate was placed at 4° C. for 5 min. Methanol was removed by suction and plates were washed with ice-cold TBST (2×200 μL). Plates were further incubated with SuperBlock® blocking buffer (Pierce #37535) (200 μL) for 2 h at RT. The Tg-3 antibody (gift of Dr. Davies, Albert Einstein College of Medicine) diluted 1:200 in SuperBlock® was placed in each well (100 μL) except the control column that was treated with control antibody (Mouse IgM, NeoMarkers, NC-1030-P). After 72 h, wells were washed with ice-cold TBST (2×200 μL). […] Un-reacted antibody was removed by washing the plates with ice-cold TBST (3×200 μL) for 5 min on a shaker. The ECLTM Western Blotting Detection Reagents 1 and 2 in 1:1 mix (100 μL) was placed in each well and the plates were read immediately in an Analyst AD plate reader (Molecular Devices). Luminescence readings were imported into SOFTmax PROR 4.3.1. Anti-mitotic activity was defined as a concentration dependent increase in luminescence readings in compound-treated wells as compared to DMSO only treated wells.

[7] = test system: SCLC cell lines; test: Cell death and apoptosis across the SCLC cell lines; type: cell-based; settings: each of the SCLC cell lines, FIGS. 6A and B
[8] = test system: Hsp90 lung; test: Hsp90 competition assay, lung homogenate; settings: for Lung/SKBr3: ratio of EC50 Hsp90 values; for EC50: read-out: EC50 Hsp90 lung, normal tissue
Experimental: as §3

[9] = test system: Hsp90 heart; test: Hsp90 competition assay, heart homogenate; settings: for Heart/SKBr3: ratio of EC50 Hsp90 values; for EC50: read-out: EC50 Hsp90 heart, normal tissue
Experimental: as §3

[10] = test system: SKBr3 breast cancer cells; test: Growth inhibition, sulforhodamine B assay; type: cell-based, human; settings: average of 3 measurements
Experimental: as §1

[11] = Tumor and plasma concentration in MDA-MB-468 xenografted mice; type: in vivo; settings: 24 hours after intraperitoneal injection
Experimental: (§2) Mice xenografted with MDA-MB-468 human breast cancer tumors were treated by intraperitoneal injection with Compound 5 at a dosage levels of 25, 50, 75, 100 and 150 mg/kg. The concentration of Compound 5 in the tumor 24 hours after administration was determined. […] Compound 5 was further tested for its effects on the pharmacodynamic marker Raf-1 kinase. Hsp90 stabilizes this kinase and maintains it in ready-to-be-activated conformation. Inhibition of Hsp90 leads to disruption of the complex and further ubiquitinylation and degradation of Raf-1 by the proteasome. Thus, Raf-1 degradation in tumors is a functional read-out of Hsp90 inhibition.

[12] = test system: Raf-1 kinase; test: Raf-1 protein levels in MDA-MB-468 tumors; type: in vivo, mice; settings: all dosage levels, FIG. 10B
Experimental: as §2

[13] = test system: PI3 kinase; test: PI3 kinase expression in MDA-MB-468 tumors; type: in vivo, mice; settings: protein unaffected by Hsp90 inhibitors
[14] = Solubility in PBS; type: physicochemical; settings: aqueous buffer, acid addition salt form
Experimental: Growth over 96 h was assessed.

[15] = Her2 degradation in SKBr3 cells, 24 h; average of 3 measurements
[16] = Homo sapiens, SK-BR-3; Her2 degradation in SKBr3 cells, 24 h; average of 3 measurements

Compound | Anti-mitotic [6] | EC50 ([4]; read-out: EC50 Hsp90-α) | IC50 [5, 16] | IC50 ([10]; Homo sapiens, SK-BR-3, 72 h) | also measured
9-(Pent-4-ynyl)-8-(2,4,5-trichloro-phenylsulfanyl)adenine [Example 2] |  |  |  |  | EC50 [1]: 26.7 ± 7.7 µM; Brain/SKBr3 [1]: 298; IC50 ([2]; normal cells): 28.1 ± 2.2 µM; RPTEC/SKBr3 ([2]; ratio of growth IC50 values): 15.6; EC50 [3]: 0.09 ± 0.03 µM
C#CCCCn1c(Sc2cc3c(cc2Br)OCO3)nc2c(N)ncnc21 [Example 1, 9-(Pent-4-ynyl)-8-(6-bromo-benzo[1,3]dioxol-5-ylsulfanyl)adenine] | Yes |  |  |  | EC50 ([4]; EC50 Hsp90-α): 0.03 µM and 0.0508 µM; IC50 [5, 15]: 0.365 ± 0.045 µM; IC50 ([5]; Homo sapiens, SK-BR-3, 24 h, Her2 degradation in SKBr3 cells, average of 3 measurements): 0.3 ± 0.05 µM; EC50 [1]: 40.2 ± 25.3 µM; Brain/SKBr3 [1]: 2000; IC50 ([2]; Homo sapiens, RPTEC): 4.1 ± 0.9 µM; induction of apoptosis [7]: induced apoptosis; Lung/SKBr3 [8]: 735; EC50 [8]: 14.7 ± 1.7 µM; Heart/SKBr3 [9]: 3265; EC50 [9]: 65.3 ± 9.9 µM; EC50 [3]: 0.02 ± 0.06 µM
C#CCCCn1c(Sc2cc(Cl)c(Cl)cc2Cl)nc2c(N)ncnc21 [Example 2, 9-(Pent-4-ynyl)-8-(2,4,5-trichloro-phenylsulfanyl)adenine] | No | 8.5 ± 0.1 µM | 58 ± 1.4 µM | 48.4 ± 2.5 µM | 
COc1cc(Sc2nc3c(N)ncnc3n2CCOC(C)C)c(Cl)cc1Cl [Example 3, 9-(2-Isopropoxy-ethyl)-8-(2,4-dichloro-5-methoxy-benzenesulfanyl)adenine] | No | 5 ± 1.1 µM |  |  | IC50 [5, 15]: 58.3 ± 2.2 µM; IC50 ([10]; 72 h): 16.1 ± 0.7 µM
Nc1ncnc2nc(Sc3cc(Cl)c(Cl)cc3Cl)[nH]c12 [Example 4, 8-(2,4,5-Trichloro-phenylsulfanyl)adenine] | Yes | 15.4 ± 2.2 µM | 47.8 ± 3.2 µM | 36 ± 0.2 µM | 
CC(C)NCCCn1c(Sc2cc3c(cc2Br)OCO3)nc2c(N)ncnc21 [Example 5, 8-(6-Bromo-benzo[1,3]dioxol-5-ylsulfanyl)-9-(3-isopropylamino-propyl)adenine] | Yes |  |  | 0.142 ± 0.022 µM | detection in plasma [11]: could not be detected; Raf-1 levels (% control) [12]: substantial decrease; expression of PI3 kinase [13]: no change in expression
C#CCCCn1c(Cc2cc3c(cc2Br)OCO3)nc2c(N)nc(F)nc21 [Example 6, 2-Fluoro-8-(6-bromo-benzo[1,3]dioxol-5-ylmethyl)-9-(pent-4-ynyl)adenine] | Yes | 0.0565 ± 0.002 µM | 0.21 ± 0.01 µM | 0.215 ± 0.055 µM | Lung/SKBr3 [8]: 134; EC50 [8]: 5.2 ± 0.21 µM; Heart/SKBr3 [9]: 343; EC50 [9]: 13.3 ± 0.21 µM; EC50 [3]: 0.0388 ± 0.003 µM
C#CCCCn1c(Cc2cc3c(cc2Cl)OCO3)nc2c(N)nc(F)nc21 [Example 7, 2-Fluoro-8-(6-chloro-benzo[1,3]dioxol-5-ylmethyl)-9-(pent-4-ynyl)adenine] | Yes | 0.0772 ± 0.001 µM | 0.3 ± 0.015 µM | 0.25 ± 0.03 µM | 
CC(C)NCCCn1c(Cc2cc3c(cc2I)OCO3)nc2c(N)nc(F)nc21 [Example 8, 2-Fluoro-8-(6-iodo-benzo[1,3]dioxol-5-ylmethyl)-9-(3-isopropylamino-propyl) adenine] | Yes | 0.0504 ± 0.004 µM | 0.08 ± 0.01 µM | 0.045 ± 0.006 µM | solubility [14]: > 5 mM
C#CCCCn1c(Sc2cc3c(cc2I)OCO3)nc2c(N)ncnc21 [Example 10, 8-(6-Iodo-benzo[1,3]dioxol-5-ylsulfanyl)-9-(pent-4-ynyl)adenine] | Yes |  | 0.1 ± 0.01 µM | 0.09 ± 0.002 µM | Lung/SKBr3 [8]: 136; EC50 [8]: 2.2 ± 0.4 µM; Heart/SKBr3 [9]: 370; EC50 [9]: 6 ± 0.2 µM; EC50 [3]: 0.0161 ± 0.001 µM
C#CCCCn1c(Cc2cc3c(cc2I)OCO3)nc2c(N)nc(F)nc21 [Example 11, 2-Fluoro-8-(6-iodo-benzo[1,3]dioxol-5-ylmethyl)-9-(pent-4-ynyl)adenine] | Yes | 0.0223 ± 0.002 µM | 0.09 ± 0.01 µM | 0.09 ± 0.03 µM | 
C#CCCCn1c(Cc2cc(OC)c(OC)cc2I)nc2c(N)nc(F)nc21 [Example 12, 2-Fluoro-8-(2-iodo-4,5-dimethoxy-benzyl)-9-(pent-4-ynyl)adenine] | No | > 15 µM | > 50 µM | > 50 µM | 
C#CCCCn1c(Cc2cc(OC)c(OC)cc2Br)nc2c(N)nc(F)nc21 [Example 13, 2-Fluoro-8-(2-bromo-4,5-dimethoxy-benzyl)-9-(pent-4-ynyl)adenine] | No | > 15 µM | > 50 µM | 55 ± 2.3 µM | 
C#CCCCn1c(Cc2cc(OC)c(OC)cc2Cl)nc2c(N)nc(F)nc21 [Example 14, 2-Fluoro-8-(2-chloro-4,5-dimethoxy-benzyl)-9-(pent-4-ynyl)adenine] | No | 4.6 ± 0.02 µM | 30 ± 1 µM | 20.6 ± 6.7 µM | 

Source: patent US10167285B2, “Small-molecule HSP90 inhibitors” (Memorial Sloan Kettering Cancer Center, priority 2005, dated 2019)
